Laboratory results as given in patent US6916802B2, “Amino ceramide-like compounds and therapeutic methods of use” (Genzyme Corporation, priority 2002, dated 2005).
Several values for one entry are separate records, joined by “and”; a condition that tells them apart may be missing. Identical values can stand only once. Marks after values point to notes of the source that are not given here. Values belong to the compound of their own block, whether it stands above or below them.

How the values were obtained:
[1] = test system: HT-29 colon adenocarcinoma cells; assay: Tumor cell growth in vitro (sulforhodamine B), HT-29; format: cell-based, human; conditions: rounded off to one digit, read-out: Inhibition of tumor cell growth in vitro, IC50
Procedure: (§1) Growth of cell lines. Comparisons of different inhibitors with regard to suppression of human cancer cell growth were made by the University of Michigan Cancer Center in vitro Drug Evaluation Core Laboratory. MCF-7 breast carcinoma cells, HT-29 colon adenocarcinoma cells, H-460 lung large cell carcinoma cells, and 9L brain gliosarcoma cells were grown in RPMI 1640 medium with 5% fetal bovine serum, 2 mM glutamine, 50 units/ml of penicillin, […] of streptomycin, and 0.1 mg/ml of neomycin. UMSCC-10A head and neck squamous carcinoma cells were grown in minimal essential medium with Earle salts and the same supplements. Medium components were from Sigma Chemical Co. Cells were plated in 96-well microtiter plates (1000 cells/well for H-460 and 9L cells, and 2000 cells/well for the other lines), and the test compounds were added 1 day later. The stock inhibitor solutions, 2 mM in 2 mM BSA, were diluted with different amounts of additional 2 mM BSA, then each solution was diluted 500-fold with growth medium to obtain the final concentrations indicated in the Figures and Tables.
(§2) Five days after plating the H-460 and 9L cells, or 6 days for the other lines, cell growth was evaluated by staining the adhering cells with sulforhodamine B and measuring the absorbance at 520 nm (Skehan, P. et al., “New Colorimetric Cytotoxicity Assay for Anticancer-Drug Screening,” J. Natl. Cancer Inst., 82:1107-1112 (1990)). The absorbance of the treated cultures is reported as percent of that of control cultures, to provide an estimate of the fraction of the cells that survived, or of inhibition of growth rate.

[2] = test system: 9L brain gliosarcoma cells; assay: Tumor cell growth in vitro (sulforhodamine B), 9L; format: cell-based; conditions: 9L; rounded off to one digit; read-out: Inhibition of tumor cell growth in vitro, IC50
Procedure: as §1, §2

[3] = test system: MCF-7 breast carcinoma cells; assay: Tumor cell growth in vitro (sulforhodamine B), MCF-7; format: cell-based, human; conditions: rounded off to one digit, read-out: Inhibition of tumor cell growth in vitro, IC50
Procedure: as §1, §2

[4] = test system: GlcCer synthase of MDCK cell homogenates; assay: Inhibition of ceramide glucosyltransferase (GlcCer synthase) of MDCK cell homogenates; format: biochemical, canine; conditions: for Inhibition at 5 μM: 5 μM inhibitor; for Inhibition at 5 μM / % Inhibition at 80 μM: triplicate ± SD, samples partly isomer mixtures; for % Inhibition at 80 μM: 80 μM inhibitor
Procedure: Assay of sphingolipid enzymes. The inhibitors were evaluated for their effectiveness against the GlcCer synthase of MDCK cell homogenates by incubation in a thermostatted ultrasonic bath (Radin N. S. et al., “Ultrasonic Baths as Substitutes for Shaking Incubator Baths,” Enzyme, 45:67-70 (1991)) with octanoyl sphingosine and uridinediphospho[^3H]glucose (Shukla, G. S. et al., “Glucosylceramide Synthase of Mouse Kidney: Further Characterization and Improved Assay Method,” Arch. Biochem. Biophys., 283:372-378 (1990)). The lipoidal substrate (85 μg) was added in liposomes made from 0.57 mg dioleoylphosphatidylcholine and 0.1 mg of Na sulfatide. Confluent cells were washed, then homogenized with a micro-tip sonicator at 0° C. for 3×30 sec; ˜0.2 mg of protein was used in each assay tube. In the case of the aromatic inhibitors, the test compound was simply evaporated to dryness from solution in the incubation tube. […] The aliphatic inhibitors, which appeared to be less soluble in water, were added as part of the substrate liposomes.

[5] = test system: H-460 lung large cell carcinoma cells; assay: Tumor cell growth in vitro (sulforhodamine B), H-460; format: cell-based, human; conditions: rounded off to one digit, read-out: Inhibition of tumor cell growth in vitro, IC50
Procedure: as §1, §2

MDCK cells [6] = assay: Cell growth of treated MDCK cells, total protein (Specific Example 2); format: cell-based, canine
Procedure: (§3) Cell culture and lipid extraction. One half million of MDCK cells were seeded into 10 cm style dish containing 8 ml serum free DMEM supplemented medium. Shayman, J. A. et al., J. Biol. Chem., 265:12135-12138 (1990). After 24 h the medium was replaced with 8 ml of the medium containing 0, 11.8, 118 or 1180 nM D-t-P4, D-t-3′,4′-ethylenedioxy-P4 or D-4′-hydroxy)-P4. The GlcCer synthase inhibitors were added into the medium as a one to one complex with delipidated BSA. Abe, A. et al., J. Lipid. Res., 36:611-621 (1995); Abe, A. et al., Biochim. Biophys. Acta, 1299:331-341 (1996). The cells were incubated for 24 h or 48 h with the inhibitors. After the incubation, the cells were washed twice with 8 ml of cold PBS and fixed with 2 ml of cold methanol. The fixed cells were scraped and transferred to a glass tube. Another one ml of methanol was used to recover the remaining cells in the dish.
(§4) Effects of D-threo-P4, D-threo4′-hydroxy-P4 and D-threo-3,4′-ethylenedioxy-P4 on GlcCer Synthesis and Cell Growth. To confirm the cellular specificity of D-threo-3′,4′-ethylenedioxy-P4 and D-threo-(4′-hydroxy)-P4 as compared to D-threo-P4, MDCK cells were treated with different concentrations of the inhibitors. The total protein amount in each sample was determined by the BCA method. In GlcCer analysis, lipid samples and standard lipids were applied to the same HPTLC plate pre-treated with borate and developed in a solvent consisting of C/M/W (63/24/4). The level of GlcCer was estimated from a standard curve obtained using a computerized image scanner. The values were normalized on the basis of the phospholipid content. The results are shown in FIG. 7, wherein each bar is the average values from three dishes, with error bars corresponding to one standard deviation. In the control, the total protein and GlcCer were 414±47.4 μg/dish and 24.3±1.97 ng/nmol phosphate, respectively.

MDCK cells [7] = assay: GlcCer, ceramide and diradylglycerol content of treated MDCK cells (Specific Example 2); format: cell-based, canine; conditions: for GlcCer lost from the cells (depletion): 11.3 nM inhibitor
Procedure: as §3, with “After 24 h the medium was replaced with 8 ml of the medium containing 0, 11.8, 118 or 1180 nM D-t-P4, D-t-3′,4′-ethylenedioxy-P4 or D-4′-hydroxy)-P4.” left out
Three ml of chloroform was added to the tube and briefly sonicated using a water bath type sonicator. After centrifugation at 800 g for 5 min, the supernatant was transferred into another glass tube. The residues were reextracted with chloroform/methanol (1/1). After the centrifugation, the resultant supernatant was combined with the first one. The residues were air-dried and kept for protein analysis. Adding 0.9% NaCl to the supematant combined, the ratio of chloroform/methanol/aqueous was adjusted to 1/1/1. After centrifugation 800 g for 5 min, the upper layer was discarded. Methanol/water (1/1) with the same amount of volume of the lower layer was used to wash. The resultant lower layer was transferred into a small glass tube and dried down under a stream of nitrogen gas. A part of the lipid was used for lipid phosphate determination. Ames, B. N., Methods Enzymol., 8:115-118 (1966). The remainder was analyzed using HPTLC (Merck).
In order to determine whether inhibition of 1-O-acylceramide synthase was the basis for inhibitor mediated ceramide accumulation, the ceramide and diradylglycerol levels of MDCK cells treated D-threo-P4, D-threo-3′,4′-ethylenedioxy-P4, and D-threo-(4′-hydroxy)-P4 were measured (Table 9). MDCK cells (5×10^5) were seeded into a 10 cm dish and incubated for 24 h. Following the incubation, the cells were treated for 24 or 48 h with or without P4 or the phenyl substitute homologues. Both ceramide and diradylglycerol contents were determined by the method of Preis, J. et al., J. Biol. Chem., 261:8597-8600 (1986). GlcCer content was measured densitometrically by a video camera and use of NIH image 1.49. Significant increases in both ceramide and diradylglycerol occurred only in cells treated with inhibitor concentrations in excess of 1 mM. This was approximately 30-fold lower than the concentration required for inhibition of the 1-O-acylceramide synthase assayed in the cellular homogenates. […] Abe, A. et al., Biochim. Biophys. Acta, 1299:331-341 (1996).
as §4

[8] = biological target: T1, 1-O-acylceramide synthase (Canis lupus familiaris, UniProt Q6XPZ3); assay: 1-O-acylceramide synthase (transacylase) assay; format: biochemical; conditions: D-threo enantiomers, FIG. 12
T1 construct: the 1-O-acylceramide synthase assayed in the cellular homogenates; endogenous in cells; host or cells: cellular homogenates (MDCK, from context)
T1 sequence (Q6XPZ3 32-408): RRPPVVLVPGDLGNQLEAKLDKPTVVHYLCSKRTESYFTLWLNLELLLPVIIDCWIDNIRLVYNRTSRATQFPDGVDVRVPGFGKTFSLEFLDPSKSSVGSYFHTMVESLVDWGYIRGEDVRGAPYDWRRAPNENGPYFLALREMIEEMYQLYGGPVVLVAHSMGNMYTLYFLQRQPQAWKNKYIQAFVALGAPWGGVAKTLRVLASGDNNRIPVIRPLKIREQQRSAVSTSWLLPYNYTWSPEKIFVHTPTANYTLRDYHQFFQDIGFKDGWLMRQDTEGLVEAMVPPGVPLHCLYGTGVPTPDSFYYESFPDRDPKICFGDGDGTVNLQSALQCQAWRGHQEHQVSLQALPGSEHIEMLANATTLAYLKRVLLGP
From the text: Distinguishing Between Inhibition of GlcCer Synthase and 1-O-acylceramide Synthase Inhibition. […] An alternative pathway for ceramide metabolism was subsequently identified, the acylation of ceramide at the 1-hydroxyl position, which was blocked by both threo and erythro diastereomers of PDMP. The specificities of D-threo-P4, D-threo-3′,4′-ethylenedioxy-P4, and D-threo-(4′-hydroxy)-P4 for GlcCer synthase were studied by assaying the transacylase.

[9] = substituent of phenyl group; estimated from the Table in Hogberg et al.; cited from earlier work
[10] = test system: three of the tumor cell lines; assay: Growth tests of chemotherapeutic agents in the Drug Evaluation Core Laboratory; format: cell-based; conditions: range over three of the tumor cell lines
Procedure: as §1, §2

Structure (SMILES): CCCCCCCCCCCCCCCC(=O)N[C@H](CN1CCCC1)[C@H](O)c1ccc(OC)cc1 [D-threo-p-methoxy-P4]
- σ + π [9]: −0.29

Structure (SMILES): O=c1[nH]cc(F)c(=O)[nH]1 [fluorouracil]
- IC50 [10]: 0.07 to 0.2 µM

Structure (SMILES): CCCCCCCCCCCCCCCC(=O)N[C@H](CN1CCCC1)[C@H](O)c1cccc(OC)c1 [m-methoxy-P4]
- σ + π [9]: 0.10

Structure (SMILES): CCCCCCCCCCCCCCCC(=O)N[C@H](CN1CCCC1)[C@H](O)c1ccc(Cl)cc1 [p-chloro-P4]
- σ + π [9]: 0.94

Structure (SMILES): CCCCCCCCCCCCCCCC(=O)N[C@H](CN1CCCC1)[C@H](O)c1ccc(C)cc1 [p-methyl-P4]
- σ + π [9]: 0.39

The next lines start with results.

- IC50 [1]: 2 µM
- IC50 [2]: 2 µM
- IC50 [3]: 2 µM
- IC50 [5]: 2 µM
Structure (SMILES): CCCCCCCCCCCCCCCC(=O)NC(CN1CCCCC1)C(O)c1ccccc1 (mixture of isomers) [BML-115]
- Inhibition at 5 μM [4]: 12.4%
- % Inhibition at 80 μM ([4]; 80 µM): 82 ± 0.3^b % and 84 ± 0.8^a %
- improvement of activity relative to PPMP ([4]; calculated from inhibitions at 5 μM in Expt. f and relative purities): ~1.4 fold

- IC50 [1]: 2 µM
- IC50 [2]: 2 µM
- IC50 [3]: 2 µM
Structure (SMILES): CCCCCCCCCCCCCCCC(=O)NC(CN1CCC1)C(O)c1ccccc1 (mixture of isomers) [BML-123]
- Inhibition at 5 μM [4]: 15 ± 0.8^f %
- % Inhibition at 80 μM [4]: 86 ± 0.1^d %

- activity in blocking 1-O-acylceramide synthase [8]: comparable activity
Structure (SMILES): CCCCCCCCCCCCCCCC(=O)N[C@H](CN1CCCC1)[C@H](O)c1ccc2c(c1)OCCO2 [D-threo-3′,4′-ethylenedioxy-P4, D-t-3′,4′-ethylenedioxy-1-phenyl-2-palmitoylamino-3-pyrrolidino-1-propanol]
- total protein versus untreated cells (MDCK cells [6]; 1130 nM): significant decrease
- total protein content versus untreated cells (MDCK cells [6]; 11.3 or 113 nM): little difference
- GlcCer lost from the cells (depletion) (MDCK cells [7]): ~78%
- GlcCer lost from the cells (depletion) (MDCK cells [7]; listed as D-t-3′,4′-ethylenedioxy-P4): 80%
- Ceramide (pmol/nmol phospholipids) (MDCK cells [7]; 113 nM, 24 h): 5.21 pmol/nmol phospholipids
- level of ceramide versus untreated cells (MDCK cells [7]; 1130 nM): two times higher

- activity in blocking 1-O-acylceramide synthase [8]: comparable activity
Structure (SMILES): CCCCCCCCCCCCCCCC(=O)N[C@H](CN1CCCC1)[C@H](O)c1ccccc1 [D-threo-P4]
- GlcCer lost from the cells (depletion) (MDCK cells [7]): 27%
- Ceramide (pmol/nmol phospholipids) (MDCK cells [7]; 11.3 nM, 24 h): 5.33 ± 0.41 pmol/nmol phospholipids
- Diradylglycerol (pmol/nmol phospholipids) (MDCK cells [7]; 11.3 nM, 24 h): 24.1 ± 1.66 pmol/nmol phospholipids
- Ceramide (pmol/nmol phospholipids) (MDCK cells [7]; 11.3 nM, 48 h): 5.68 ± 0.27 pmol/nmol phospholipids
- Diradylglycerol (pmol/nmol phospholipids) (MDCK cells [7]; 11.3 nM, 48 h): 29.6 ± 0.73 pmol/nmol phospholipids
- Ceramide (pmol/nmol phospholipids) (MDCK cells [7]; 113 nM, 24 h): 4.64 ± 0.38 pmol/nmol phospholipids
- Diradylglycerol (pmol/nmol phospholipids) (MDCK cells [7]; 113 nM, 24 h): 26.6 ± 1.56 pmol/nmol phospholipids
- Ceramide (pmol/nmol phospholipids) (MDCK cells [7]; 113 nM, 48 h): 7.08 ± 0.29 pmol/nmol phospholipids
- Diradylglycerol (pmol/nmol phospholipids) (MDCK cells [7]; 113 nM, 48 h): 33.0 ± 2.63 pmol/nmol phospholipids
- Ceramide (pmol/nmol phospholipids) (MDCK cells [7]; 1130 nM, 24 h): 5.10 ± 0.35 pmol/nmol phospholipids
- Diradylglycerol (pmol/nmol phospholipids) (MDCK cells [7]; 1130 nM, 24 h): 27.1 ± 0.67 pmol/nmol phospholipids
- Ceramide (pmol/nmol phospholipids) (MDCK cells [7]; 1130 nM, 48 h): 9.74 ± 0.53 pmol/nmol phospholipids
- Diradylglycerol (pmol/nmol phospholipids) (MDCK cells [7]; 1130 nM, 48 h): 38.8 ± 1.11 pmol/nmol phospholipids
- σ + π [9]: 0.00

- IC50 [10]: 0.1 to 1 µM
Structure (SMILES): COc1cc([C@@H]2c3cc4c(cc3[C@@H](O[C@@H]3O[C@@H]5CO[C@@H](C)O[C@H]5[C@H](O)[C@H]3O)[C@H]3COC(=O)[C@H]23)OCO4)cc(OC)c1O [etoposide]

- IC50 [10]: 0.03 to 0.2 µM
Structure (SMILES): CN(Cc1cnc2nc(N)nc(N)c2n1)c1ccc(C(=O)N[C@@H](CCC(=O)O)C(=O)O)cc1 [methotrexate]
